Test results taken from US11390661B2, “HCMV entry inhibitors” (priority 2016, dated 2022).

Tests used:
[1] = tested on: TB40-BACKL7-UL32EGFP-UL100mCherry; assay: Adsorption and penetration of dual fluorescent HCMV particles on HECs; type: cell-based, Human cytomegalovirus; details: 100 ng/ml
Experimental: To distinguish between adsorption and penetration of viral particles the inventors made use of dual fluorescent HCMV TB40-BACKL7-UL32EGFP-UL100mCherry (Sampaio 2013). HFFs and HECs were seeded at a density of 40,000 cells per well on gelatin-coated MIDI plates. Overnight produced cell-free infectious supernatant of the fluorescent virus was pre-incubated with PDGFR-Fcs for 2 h at 37° C. Before addition of the mixture the cells were pre-incubated with MEM for 30 min. […] After fixation with acetone, the EGFP signal of pUL32-EGFP was enhanced using mouse-anti-GFP (clone 3E6, Invitrogen) and Alexa488-anti-mouse (Life Technologies). DAPI (4′,6-diamidino-2-phenylindole) was added to mark the cell nuclei. The number of mCherry and EGFP positive particles which are enveloped was compared to the number of particles which were only green per cell. These […] particles have lost their UL100mCherry containing envelope, presumably by fusion with cellular membranes.
To further investigate, which of the initial steps of infection are blocked, the inventors performed a series of experiments that allowed discriminating between adsorption and penetration. They used the dual fluorescent virus TB40-BACKL7-UL32EGFP-UL100mCherry (Sampaio 2013) as it allows to discriminate between enveloped (EGFP-positive and mCherry positive) and non-enveloped particles (only EGFP positive). […]

HCMV strain TB40/E = assay: Inhibition of infection of fibroblasts (HFFs), IE antigen immunofluorescence; type: cell-based, Human cytomegalovirus
Experimental: For testing the inhibitory effect of antivirals or fusion proteins on HCMV, the respective inhibitors were diluted in MEM and mixed with infectious supernatants, the mixtures were incubated for 2 h at 37° C. before addition to the cells. For fibroblast infection the virus-inhibitor mixture was incubated on the cells for about 24 h. If endothelial cells were included in the experiment, all cells were supplied with their respective maintenance media after 2 h, and further incubated for 22 h.
(§1) Infection efficiencies were determined by immunofluorescence staining for viral proteins. For fixation and permeabilization the cells were incubated with 80% acetone for 5 min. For HCMV infected cells the immediate early proteins pUL122/123 were detected with a mouse monoclonal (clone E13, Argene) and visualized using a Cy3 conjugated goat anti-mouse secondary antibody (Jackson Immuno Research). HSV infected cultures were stained 6 h post infection for ICP0 using a mouse monoclonal (clone 11060, Santa Cruz) and goat anti-mouse AF488 (life technologies). DAPI was used to locate nuclei. Infection rates were determined by counting the number of cell nuclei positive for the respective viral protein, as well as the total number of nuclei per image. For each condition three images were evaluated.
To test this, the inventors pre-incubated cell free preparations of HCMV strain TB40/E with variable concentrations of soluble PDGFR-alpha-Fc chimeras for 2 h before adding them to HFFs and HECs. After 2 h the virus was removed and replaced with the appropriate cell culture medium for an overnight incubation. Cultures were then fixed, and the fraction of infected cells was determined by indirect immunofluorescence staining of viral IE antigens.
Cell free preparations of TB40/E were pre-incubated with increasing concentrations of the various Fc chimeras for 2 h. HFFs were then incubated with the mixtures for 2 h followed by a medium exchange and an overnight incubation.

[2] = tested on: HCMV strains AD169, Towne, Merlin, VR1814, VHL/E, TB40/F; assay: Inhibition of HFF infection by other HCMV strains; type: cell-based, Human cytomegalovirus; details: 250 ng/ml, HFFs
Experimental: as §1
Next, it was tested whether soluble PDGFR-alpha-Fc would inhibit not only strain TB40/E but also other strains of HCMV. […] After an overnight incubation, the fraction of infected cells was determined by immunofluorescence staining of viral immediate early antigen. […]

HCMV particles = assay: Binding of chimeric receptors (Fc-fusion proteins) to HCMV particles; design: species or system Human cytomegalovirus
Experimental: To assess the binding of Fc-Proteins to virus particles, HFFs were seeded at a density of 40,000 cells per well on IBIDI plates 1 day prior to infection. Virus preparations were pre-incubated with Fc-fusion proteins at a final concentration of 500 ng/ml for 2 h at 37° C. The virus/Fc-protein mixtures were incubated with the cells for 1.5 h on ice. Before fixation with 80% acetone, the cells were washed once with MEM. For staining of viral particles mouse hybridoma recognizing the abundant viral protein pp150 (generously provided by W. Britt, Sanchez 2000) used.
The inventors tested this by staining of adsorbed virus particles with the Fc-fusion proteins. […] Virus particles were stained for the capsid protein pp150 and bound Fc-fusion proteins.
The inventors analyzed the mode of inhibition by PDGFR-alpha-Fc. For this, the binding of different concentrations of the fusion protein was quantified by assessing the particle intensities after staining with anti-human antibody (FIG. 5). […] (FIGS. 4 and 5).

UL74stop virus = assay: Inhibition assay with UL74stop virus; type: cell-based, Human cytomegalovirus
Experimental: To further investigate this, inhibition assays were performed with the UL74stop virus (FIG. 8B). As deletion of pUL74 from the virus has a severe effect on infectivity, virions had to be 50 fold concentrated for the experiment, whereas wild type virus had to be diluted to achieve similar infection rates.
FIG. 8: pUL74 is the viral interaction partner of PDGFR-alpha-Fc. Virus preparations of strain TB40-BAC4 or TB40-BAC4UL74stop were pretreated for 2 h with PDGFR-alpha-Fc. A: HFFs were fixed after 90 min of incubation with the virus-inhibitor mixture followed by staining for the viral structural protein pUL32 (red) and for Fc (green). B: Wild type or pUL74stop virus preparations were pre-incubated for 2 h with PDGFR-alpha-Fc before infection of HFFs or HECs was allowed. Wild type or UL74stop virus preparations were diluted or concentrated respectively to obtain similar infection rates. Infection rates were determined by calculation of the number of immediate early positive nuclei over total DAPI stained nuclei per image. Out of three independent experiments one is shown.

Question: “PDGFR-alpha-Fc: recombinant Fc-fusion protein of the PDGFR-alpha extracellular domain, obtained from R&D (6765-PR-050)” was tested. Which “effect on penetration of HECs” value [1] did it give?
Answer: affected only in fibroblasts

Question: And the “reduction of adsorption on HECs” value [1]?
Answer: 75%

Question: What about the “inhibition of infection of HFFs at 200 ng/ml” value (HCMV strain TB40/E; 200 ng/ml) of the same substance?
Answer: complete abrogation of infection

Question: And the “inhibitory potential of Fc chimeras on HCMV infection of HFFs” value (HCMV strain TB40/E; increasing concentrations, pre-incubated 2 h)?
Answer: blocked infection in a dose dependent fashion

Question: What about the “EC50 of inhibition of infection of HFFs” value (HCMV strain TB40/E; virus pre-incubated 2 h) of the same substance?
Answer: 0.01 to 0.02 µg/mL

Question: What about the “reduction of infection, strains other than VR1814” value [2] of the same substance?
Answer: complete

Question: What about the “EC50 of binding to HCMV particles” value (HCMV particles; particle intensities after anti-human antibody staining) of the same substance?
Answer: 0.108 µg/mL

Question: And the “binding of Fc-fusion protein to virus particles (anti-human antibody staining)” value (HCMV particles; particles pre-incubated with Fc-fusion protein, attached to cells on ice)?
Answer: binds to the virus

Question: And the “infectivity of the UL74stop virus with increasing doses” value (UL74stop virus)?
Answer: did not significantly change
